# Assay results as given in US9409905B2, “Antibacterial compounds and methods for use” (PTC THERAPEUTICS, INC., priority 2011, dated 2016).
# Columns and labels:
# [1] = tested on: Klebsiella pneumoniae (K. pneumoniae) 35657; experiment: Antibacterial activity, MIC (Table 4); assay type: cell-based; details: K. pneumoniae 35657, read-out: MIC, 35657
# How it was run: (§1)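 Values are minimum inhibitory concentrations in μg/mL from broth microdilution, meaning no macroscopically visible growth at that concentration. Resistant MXX isolates are multi-drug resistant clinical strains.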
# [2] = tested on: Acinetobacter baumannii (A. baumannii) BAA747; experiment: Antibacterial activity, MIC (Table 4); assay type: cell-based; details: A. baumannii BAA747, read-out: MIC, BAA747
# How it was run: as §1
# [3] = tested on: E. coli 25922; experiment: Antibacterial activity, microbroth dilution MIC (Table 1); assay type: cell-based, Escherichia coli; details: Escherichia coli; microbroth dilution; control Gram-negative E. coli 25922 strain; read-out: MIC, 25922
# How it was run: (§2)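 In a microbroth dilution test, the minimum inhibitory concentration was defined as the lowest compound level preventing growth seen by eye, and was given in μg/mL.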
# [4] = tested on: K. pneumoniae MXX1232; experiment: Antibacterial activity, MIC, resistant strain (Table 4); assay type: cell-based; details: Klebsiella pneumoniae, MXX1232; resistant K. pneumoniae MMX1232, multi-drug resistant clinical isolate; read-out: MIC, MMX1232
# How it was run: as §1
# [5] = tested on: A. baumannii MXX2240; experiment: as above; assay type: cell-based; details: Acinetobacter baumannii, MXX2240; resistant A. baumannii MMX2240, multi-drug resistant clinical isolate; read-out: MIC, MMX2240
# How it was run: as §1
# [6] = tested on: E. coli LZ3111; experiment: Antibacterial activity, MIC, quinolone resistant strain (Table 2); assay type: cell-based; details: Escherichia coli, LZ3111, read-out: MIC LZ3111
# How it was run: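 Strain carries mutations conferring high-level quinolone resistance; tested by microbroth dilution, MIC recorded in μg/mL as lowest concentration preventing visible growth.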
# [7] = tested on: Staphylococcus aureus (S. aureus) 29213; experiment: Antibacterial activity, microbroth dilution MIC (Table 1); assay type: cell-based; details: microbroth dilution, Gram-positive S. aureus 29213, read-out: MIC, 29213
# How it was run: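 Microbroth dilution was used. MIC, in μg/mL, is the lowest drug concentration preventing macroscopically visible growth under the test conditions.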
# [8] = tested on: Escherichia coli (E. coli) BAS849; experiment: as above; assay type: cell-based; details: microbroth dilution, super sensitive Gram-negative E. coli BAS849, read-out: MIC, BAS849
# How it was run: as §2
# [9] = tested on: E. coli ELZ4251; experiment: Antibacterial activity, MIC, multi-drug resistant clinical isolate (Table 3); assay type: cell-based; details: Escherichia coli
# How it was run: (§3)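 Microbroth dilution. Endpoint: absence of macroscopically visible growth. Value = MIC, μg/mL.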
# [10] = tested on: E. coli ELZ4000; experiment: as above; assay type: cell-based; details: Escherichia coli, ELZ4000, read-out: MIC ELZ4000
# How it was run: as §3
# [11] = tested on: Pseudomonas aeruginosa (P. aeruginosa) 27853; experiment: Antibacterial activity, MIC (Table 5); assay type: cell-based; details: P. aeruginosa 27853, read-out: MIC, 27853
# How it was run: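 Compounds are serially diluted in broth and inoculated with the organism. Growth is then inspected macroscopically, and the lowest concentration showing none is taken as the MIC (μg/mL).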
Structure (SMILES),MIC [1] [µg/mL],MIC [2] [µg/mL],MIC [3] [µg/mL],MIC [4] [µg/mL],MIC [5] [µg/mL],MIC [6] [µg/mL],MIC [7] [µg/mL],MIC [8] [µg/mL],MIC [9] [µg/mL],MIC [10] [µg/mL],MIC [11] [µg/mL]
"CCc1cc(C(=O)O)c(=O)[nH]c1-c1ccc2c(c1)cc(CCN1CCCCC1)n2C [Cpd 160, 5-ethyl-6-(1-methyl-2-(2-(piperidin-1-yl)ethyl)-1H-indol-5-yl)-2-oxo-1,2-dihydropyridine-3-carboxylic acid]",< 1,1 to 3.5,< 1,12.5 to 150,12.5 to 150,12.5 to 150,12.5 to 150,< 1,12.5 to 150,12.5 to 150,12.5 to 150
"CCc1cc(C(=O)O)c(=O)[nH]c1-c1ccc2c(c1)cc(CCN(C)C)n2C [Cpd 161, 6-(2-(2-(dimethylamino)ethyl)-1-methyl-1H-indol-5-yl)-5-ethyl-2-oxo-1,2-dihydropyridine-3-carboxylic acid]",< 1,3.5 to 12.5,< 1,12.5 to 150,12.5 to 150,12.5 to 150,12.5 to 150,< 1,12.5 to 150,12.5 to 150,3.5 to 12.5
"CCc1c(-c2ccc3c(c2)cc(CN2CCCC2)n3C)[nH]c(=O)c(C(=O)O)c1O [Cpd 164, 5-ethyl-4-hydroxy-6-(1-methyl-2-(pyrrolidin-1-ylmethyl)-1H-indol-5-yl)-2-oxo-1,2-dihydropyridine-3-carboxylic acid]",3.5 to 12.5,< 1,< 1,12.5 to 150,3.5 to 12.5,3.5 to 12.5,3.5 to 12.5,< 1,12.5 to 150,12.5 to 150,3.5 to 12.5
"CCc1c(-c2ccc3c(c2)cc(CN2CCC(O)C2)n3C)[nH]c(=O)c(C(=O)O)c1O (stereo not drawn) [Cpd 178, 5-ethyl-4-hydroxy-6-(2-((3-hydroxypyrrolidin-1-yl)methyl)-1-methyl-1H-indol-5-yl)-2-oxo-1,2-dihydropyridine-3-carboxylic acid]",3.5 to 12.5,1 to 3.5,< 1,12.5 to 150,12.5 to 150,3.5 to 12.5,3.5 to 12.5,< 1,12.5 to 150,12.5 to 150,3.5 to 12.5
"CCc1c(-c2ccc3c(c2)cc(CN2CC(F)C2)n3C)[nH]c(=O)c(C(=O)O)c1O [Cpd 194, 5-ethyl-6-(2-((3-fluoroazetidin-1-yl)methyl)-1-methyl-1H-indol-5-yl)-4-hydroxy-2-oxo-1,2-dihydropyridine-3-carboxylic acid]",–,1 to 3.5,1 to 3.5,12.5 to 150,3.5 to 12.5,3.5 to 12.5,3.5 to 12.5,< 1,12.5 to 150,12.5 to 150,12.5 to 150
"CCc1c(-c2ccc3c(c2)cc(CN2CC(CO)C2)n3C)[nH]c(=O)c(C(=O)O)c1O [Cpd 271, 5-ethyl-4-hydroxy-6-(2-((3-(hydroxymethyl)azetidin-1-yl)methyl)-1-methyl-1H-indol-5-yl)-2-oxo-1,2-dihydropyridine-3-carboxylic acid]",–,1 to 3.5,< 1,12.5 to 150,12.5 to 150,3.5 to 12.5,12.5 to 150,< 1,3.5 to 12.5,12.5 to 150,3.5 to 12.5
"CCc1c(-c2ccc3c(c2)cc(CNC(CF)CF)n3C)[nH]c(=O)c(C(=O)O)c1O [Cpd 274, 6-(2-((1,3-difluoropropan-2-ylamino)methyl)-1-methyl-1H-indol-5-yl)-5-ethyl-4-hydroxy-2-oxo-1,2-dihydropyridine-3-carboxylic acid]",–,3.5 to 12.5,1 to 3.5,12.5 to 150,3.5 to 12.5,3.5 to 12.5,3.5 to 12.5,< 1,3.5 to 12.5,12.5 to 150,12.5 to 150
"Cc1c(-c2ccc3c(c2)cc(CN2CCCC2)n3C)[nH]c(=O)c(C(=O)O)c1O [Cpd 313, 4-hydroxy-5-methyl-6-(1-methyl-2-(pyrrolidin-1-ylmethyl)-1H-indol-5-yl)-2-oxo-1,2-dihydropyridine-3-carboxylic acid]",–,3.5 to 12.5,3.5 to 12.5,12.5 to 150,1 to 3.5,1 to 3.5,12.5 to 150,< 1,1 to 3.5,3.5 to 12.5,12.5 to 150
